Source: ChEMBL document CHEMBL1921757, “Small molecule probes of the receptor binding site in the Vibrio cholerae CAI-1 quorum sensing circuit” (Bioorg Med Chem, 2011)

How the values were obtained:
Vibrio cholerae = experiment: Antibacterial activity against Vibrio cholerae MM920 assessed as growth inhibition after 4 hrs by spectrophotometry; assay type: organism-based; conditions: in vivo
[1] = molecular target: T1, CAI-1 autoinducer sensor kinase/phosphatase CqsS (Vibrio cholerae serotype O1 (strain ATCC 39315 / El Tor Inaba N16961)) (UniProt Q9KM66); experiment: Ratio of compound EC50 to (S)-CAI-1 EC50 for CqsS receptor in cqsA-deficient, luxQ-deficient Vibrio cholerae MM920 harboring cosmid pBB1 carrying Vibrio harveyi luxCDABE gene assessed as induction of quorum sensing regulated bioluminescence after 4 hrs by scintillation counting
T1 sequence (whole entry): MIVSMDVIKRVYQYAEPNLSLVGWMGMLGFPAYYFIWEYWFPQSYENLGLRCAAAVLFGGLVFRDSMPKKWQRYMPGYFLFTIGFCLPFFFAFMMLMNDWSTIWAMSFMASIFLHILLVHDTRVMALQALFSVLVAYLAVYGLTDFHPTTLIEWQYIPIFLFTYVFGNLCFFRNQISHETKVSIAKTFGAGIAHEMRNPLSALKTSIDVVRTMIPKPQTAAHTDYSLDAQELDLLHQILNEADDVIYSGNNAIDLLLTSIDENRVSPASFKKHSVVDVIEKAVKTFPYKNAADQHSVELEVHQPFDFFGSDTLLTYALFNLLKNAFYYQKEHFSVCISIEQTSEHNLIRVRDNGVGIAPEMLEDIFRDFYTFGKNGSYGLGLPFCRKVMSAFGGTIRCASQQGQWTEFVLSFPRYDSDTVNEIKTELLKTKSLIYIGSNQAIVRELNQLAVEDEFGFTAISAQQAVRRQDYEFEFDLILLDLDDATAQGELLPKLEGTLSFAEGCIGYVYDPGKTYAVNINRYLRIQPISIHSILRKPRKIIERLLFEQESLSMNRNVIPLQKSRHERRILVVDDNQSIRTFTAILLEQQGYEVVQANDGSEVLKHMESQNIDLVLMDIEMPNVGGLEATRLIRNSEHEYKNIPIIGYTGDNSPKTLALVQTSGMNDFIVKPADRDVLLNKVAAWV

[2] = molecular target: T2, CAI-1 autoinducer sensor kinase/phosphatase CqsS (Vibrio cholerae serotype O1 (strain ATCC 39315 / El Tor Inaba N16961), UniProt Q9KM66); experiment: Agonist activity at CqsS receptor in cqsA-deficient, luxQ-deficient Vibrio cholerae MM920 harboring cosmid pBB1 carrying Vibrio harveyi luxCDABE gene assessed as induction of quorum sensing regulated bioluminescence after 4 hrs by scintillation counting; assay type: functional
T2 sequence (Q9KM66 whole entry): T1 sequence (whole entry)

[3] = molecular target: T1, CAI-1 autoinducer sensor kinase/phosphatase CqsS (Vibrio cholerae serotype O1 (strain ATCC 39315 / El Tor Inaba N16961)); experiment: Agonist activity at CqsS receptor in cqsA-deficient, luxQ-deficient Vibrio cholerae MM920 harboring cosmid pBB1 carrying Vibrio harveyi luxCDABE gene assessed as maximal quorum sensing regulated bioluminescence at 50 uM after 4 hrs by scintillation counting relative to (S)-CAI-1; assay type: functional
[4] = molecular target: T1, CAI-1 autoinducer sensor kinase/phosphatase CqsS (Vibrio cholerae serotype O1 (strain ATCC 39315 / El Tor Inaba N16961)); experiment: Agonist activity at CqsS receptor in cqsA-deficient, luxQ-deficient Vibrio cholerae MM920 harboring cosmid pBB1 carrying Vibrio harveyi luxCDABE gene assessed as quorum sensing regulated bioluminescence after 4 hrs by scintillation counting relative to (S)-CAI-1; assay type: functional

| Compound | growth inhibition (GI) (Vibrio cholerae) | Ratio EC50 [1] | EC50 [2] [nM] | Emax [3] [%] | Emax [4] [%] |
| --- | --- | --- | --- | --- | --- |
| CCCCCC(=O)[C@@H](O)CC | Not Active | > 200 | > 50000 | 27 | – |
| CCCCCCC(=O)[C@@H](O)CC | Not Active | > 200 | > 50000 | 59 | – |
| CCCCCCCC(=O)[C@@H](O)CC | Not Active | – | – | – | – |
| CCCCCCCC(=O)[C@H](O)CC | Not Active | – | – | – | – |
| CCCCCCCCC(=O)[C@@H](O)CC | Not Active | 4.6 | 1100 | – | 100 |
| CCCCCCCCC(=O)[C@H](O)CC | Not Active | 6.7 | 1610 | – | 95 |
| CCCCCCCCCC(=O)[C@@H](O)CC | Not Active | – | – | – | – |
| CCCCCCCCCC(=O)[C@H](O)CC | Not Active | – | – | – | – |
| CCCCCCCCCCC(=O)[C@@H](O)CC | Not Active | 8.4 | 2090 | – | 98 |
| CCCCCCCCCCCCC(=O)[C@@H](O)CC | Not Active | > 200 | > 50000 | 45 | – |
| CCCCCCCCCC(=O)C(=O)CC | Not Active | 14 | 3200 | – | 92 |
| CCCCCCCCCC(O)C(=O)CC (centres undefined) | Not Active | 84 | – | – | 38 |
| CCCCCCCCCC(O)CCC (centres undefined) | Not Active | > 200 | > 50000 | – | – |
| CCCCCCCCCC(=O)CCC | Not Active | > 200 | > 50000 | – | – |
| CCCCCCCCCCC(O)CC (centres undefined) | Not Active | > 200 | > 50000 | – | – |
| CCCCCCCCCCC(=O)CC | Not Active | > 200 | > 50000 | – | – |
| CCCCCCCCCC(=O)C(Cl)CC (centres undefined) | Not Active | > 200 | > 50000 | – | 24 |
| CCCCCCCCCC(=O)C(Br)CC (centres undefined) | Not Active | 13 | 2400 | – | 73 |
| CCCCCCCCCC(=O)C(S)CC (centres undefined) | Not Active | 8.6 | 1600 | – | 67 |
| CCCCCCCCCC(=O)C(N)CC.Cl (centres undefined) | Not Active | 0.27 | 210 | – | 105 |
| CCCCCCCCCC(=O)[C@H](C)O | Not Active | 2.6 | 340 | – | 96 |
| CCCCCCCCCC(O)C(O)CC (mixture of isomers) | Not Active | 18 | 4300 | – | 83 |
| CCCCCCCCCC(=O)C(O)CCC (racemic) | Not Active | 6 | 780 | – | 84 |
| CCCCCCCCCC(=O)C(O)C(C)C (racemic) | Not Active | 21 | 7160 | – | 71 |
